The record followed here is patent publication US7776845B2, “Pharmaceutical compositions” (Harbor Biosciences, Inc., priority 1999, dated 2010).

For test [1], the target named is T1, androgen receptor (AR) (Homo sapiens, UniProt P10275).
T1 construct: expressed in transfected cells; host or cells: PC-3 (AR-negative human prostate cancer cell line)
T1 sequence (P10275 1-920): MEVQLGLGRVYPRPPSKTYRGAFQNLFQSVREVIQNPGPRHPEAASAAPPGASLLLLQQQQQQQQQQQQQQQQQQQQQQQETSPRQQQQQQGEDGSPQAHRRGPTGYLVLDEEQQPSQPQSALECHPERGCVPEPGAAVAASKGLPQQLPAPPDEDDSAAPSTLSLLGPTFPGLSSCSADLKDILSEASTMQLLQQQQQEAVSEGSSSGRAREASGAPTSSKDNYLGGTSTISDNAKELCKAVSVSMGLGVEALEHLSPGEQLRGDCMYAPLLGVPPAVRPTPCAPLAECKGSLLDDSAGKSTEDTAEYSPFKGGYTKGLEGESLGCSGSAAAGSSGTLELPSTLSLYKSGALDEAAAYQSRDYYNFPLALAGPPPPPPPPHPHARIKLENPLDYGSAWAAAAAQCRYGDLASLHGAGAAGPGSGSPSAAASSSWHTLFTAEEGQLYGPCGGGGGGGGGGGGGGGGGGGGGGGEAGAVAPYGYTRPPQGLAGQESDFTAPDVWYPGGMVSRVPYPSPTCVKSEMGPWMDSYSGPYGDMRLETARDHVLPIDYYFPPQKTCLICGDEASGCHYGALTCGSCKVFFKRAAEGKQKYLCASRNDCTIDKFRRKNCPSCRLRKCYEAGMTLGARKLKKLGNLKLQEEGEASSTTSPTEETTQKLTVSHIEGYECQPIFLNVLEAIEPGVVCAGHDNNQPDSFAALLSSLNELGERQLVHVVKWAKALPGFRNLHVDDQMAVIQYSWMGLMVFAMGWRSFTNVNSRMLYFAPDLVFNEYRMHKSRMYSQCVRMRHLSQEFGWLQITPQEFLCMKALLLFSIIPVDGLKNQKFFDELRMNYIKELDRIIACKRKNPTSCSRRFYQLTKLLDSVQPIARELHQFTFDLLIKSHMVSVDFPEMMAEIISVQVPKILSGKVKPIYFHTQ
Put plainly: Induction of AR-mediated transcriptional activity (MMTV-CAT reporter assay). The class given is cell-based. The settings on record: PC-3 cells co-transfected with AR plasmid and MMTV-CAT; compounds at 1000, 10 and 0.1 nM; FIG. 1. As to the method: (§1) AR activity assay. […] Ethynyl derivatized steroids were purchased from Steraloids.
Induction of AR-mediated transcriptional activity. Steroid compounds were screened for their ability to induce AR transcriptional activity in the AR-negative PC-3 cell line. The results of the CAT assay were obtained by transient co-transfection of AR plasmid and a reporter plasmid (MMTVCAT) containing the CAT gene linked to the androgen response element (ARE). After transfection, the cells were treated with various DHEA derivatives at 1000, 10, and 0.1 nM.

The target of test [2] is T1, androgen receptor (AR). In words: Anti-adiol activity: modulation of AED-induced AR transactivation (MMTV-CAT assay). The format is cell-based. The settings on record: PC-3 cells, pSG5 AR + MMTV-CAT, 50 nM AED, compound at 10, 100 or 1000 nM; FIG. 2B.
Excerpt: as §1

The target in test [3] is T2, progesterone receptor (PR) (Homo sapiens, UniProt P06401).
T2 sequence (P06401 1-933): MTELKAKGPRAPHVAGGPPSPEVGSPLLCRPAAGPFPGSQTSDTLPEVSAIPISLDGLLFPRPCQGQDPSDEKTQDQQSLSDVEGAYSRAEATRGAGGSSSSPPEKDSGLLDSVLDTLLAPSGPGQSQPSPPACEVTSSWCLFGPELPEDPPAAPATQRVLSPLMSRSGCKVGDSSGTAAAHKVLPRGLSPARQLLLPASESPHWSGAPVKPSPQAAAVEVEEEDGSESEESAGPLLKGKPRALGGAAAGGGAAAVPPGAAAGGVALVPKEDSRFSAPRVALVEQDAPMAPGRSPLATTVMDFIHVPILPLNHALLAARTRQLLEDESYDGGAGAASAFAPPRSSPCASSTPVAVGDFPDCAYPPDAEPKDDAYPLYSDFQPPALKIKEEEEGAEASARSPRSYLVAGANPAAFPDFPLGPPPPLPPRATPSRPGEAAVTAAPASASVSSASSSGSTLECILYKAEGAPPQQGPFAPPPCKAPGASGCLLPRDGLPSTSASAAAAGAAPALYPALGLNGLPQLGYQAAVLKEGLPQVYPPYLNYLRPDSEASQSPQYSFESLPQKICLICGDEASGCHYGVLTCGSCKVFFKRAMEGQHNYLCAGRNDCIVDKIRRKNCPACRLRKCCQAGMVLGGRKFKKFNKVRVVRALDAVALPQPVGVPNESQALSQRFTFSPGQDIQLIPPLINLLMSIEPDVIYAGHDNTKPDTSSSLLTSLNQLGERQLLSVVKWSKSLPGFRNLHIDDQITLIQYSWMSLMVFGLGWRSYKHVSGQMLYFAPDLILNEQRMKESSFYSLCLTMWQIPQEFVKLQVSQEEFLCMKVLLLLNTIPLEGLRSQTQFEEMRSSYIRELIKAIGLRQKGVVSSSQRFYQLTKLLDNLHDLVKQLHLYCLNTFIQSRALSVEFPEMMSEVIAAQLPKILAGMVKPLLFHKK
In words: Steroid hormone specificity: MMTV-CAT reporter with PR in PC-3 cells. The settings on record: PC-3 cells transfected with MMTV-CAT and PR; FIG. 5.
Description: Ethynyl derivatized steroids were purchased from Steraloids. The plasmid pSG5-wild-type AR (pSG5) and mouse mammalian tumor virus (MMTV)-chloramphenicol acetyltransferase (CAT) were constructed as described (6). […] The human prostate cancer cell line, PC-3, and human breast cancer cell line, MCF-7, were maintained in Dulbecco's modified eagles medium (DMEM) containing 10% fetal calf serum. DNA transfection and CAT assays were performed essentially as described (4, 6, 7). Briefly, 4×10^5 cells were plated on 60 mm dishes 24 h before transfection, and the medium was changed to DMEM (without phenol red) with 10% charcoal-stripped fetal calf serum 1 hour before transfection. The cells were transfected using the calcium phosphate precipitation method. The total amount of DNA was adjusted to 8.5 μg with pSG5 in each transfection assay. After transfecting the cells for 24 hours, the transfection medium was removed, fresh DMEM was added and steroids were added. The cells were then incubated in DMEM with steroids for 24 hours. After incubation, the cells were harvested and whole cell extracts were used for CAT assay. Transfection efficiency was normalized by cotransfection with a βgalactosidase vector, which acted as an internal control. The CAT enzyme activity was quantitated by phosphor imager according to the manufacturer's instructions (Molecular Dynamics).

The target of test [4] is T1, androgen receptor (AR). In words: Suppression of AED-induced AR transcriptional activity in the presence of HF (MMTV-CAT assay). The settings on record: PC-3 cells, 1 μM HF, 50 nM AED; FIG. 4. The class given is cell-based.
Excerpt: as §1

As to “3β,17β-diacetoxy-androst-5-ene-7α,17β-diol [Compound 13]”, the “androgenic activity (AR-mediated CAT gene transactivation)” value (“androgenic activity” below) on androgen receptor (AR) [1] is on record as “little androgenic activity”. Besides, the “effect on AED-mediated AR transcriptional activity” value (“effect” for short) on androgen receptor (AR) [2] is on record as “either activation of AED-mediated AR transcriptional activity or they have no effect”. For “3β-methoxy-androst-5-ene-?,17β-diol [Compound 16]”, the “androgenic activity” value at androgen receptor (AR) [1] is given as “little androgenic activity”. For the molecule “17-methyl-marrianolic acid [Compound 18]”, the “androgenic activity” value at androgen receptor (AR) [1] is “little androgenic activity”. Besides, at androgen receptor (AR) [2], the “effect” value is reported as “either activation of AED-mediated AR transcriptional activity or they have no effect”. Take `C#C[C@]1(O)CCC2C3CCc4cc(O)ccc4C3CC[C@@]21C` (stereo partly drawn) [Compound 4, 1, 3, 5(10)-estratriene-17α-ethynyl-3β,17β-diol]: the PR activity entry in test [3] is on record as “some weak PR activity”. Regarding `C[C@]12C[C@H](O)[C@H]3[C@@H](CC=C4C[C@@H](O)CC[C@@]43C)[C@@H]1CC[C@@H]2O` [Compound 5, androst-5-ene-3β,11β,17β-triol], the “androgenic activity” value on androgen receptor (AR) [1] was “little androgenic activity”. For the same molecule, the “effect” value at androgen receptor (AR) [2] was “either activation of AED-mediated AR transcriptional activity or they have no effect”.

As for `C#C[C@]1(O)CCC2C3CC=C4C[C@@H](O)CC[C@]4(C)C3CC[C@@]21C` (stereo partly drawn) [Compound 6, 17α-ethynyl-androst-5-ene-3β,17β-diol], at androgen receptor (AR) [1], the “androgenic activity” value is on record as “little androgenic activity”. Besides, on androgen receptor (AR) [2], the “effect” value is given as “antagonized AED-mediated AR transcriptional activity”. As for `C[C@]12CC[C@H]3[C@@H](CC=C4C[C@@H](O)CC[C@@]43C)[C@@H]1CC(=O)[C@@H]2O` [Compound 8, 3β,17β-dihydroxy-androst-5-en-16-one], the “androgenic activity” value at androgen receptor (AR) [1] is on record as “little androgenic activity”. Besides, the “effect” value on androgen receptor (AR) [2] is “antagonized AED-mediated AR transcriptional activity”.

For `COC(=O)O[C@H]1CC[C@@]2(C)C(=CC(=O)[C@@H]3[C@@H]2CC[C@]2(C)C(=O)CC[C@@H]32)C1` [Compound 10, 3β,-methylcarbonate-androst-5-en-7,17-dione], on androgen receptor (AR) [1], the “androgenic activity” value is given as “little androgenic activity”. Further, the “effect” value at androgen receptor (AR) [2] is reported as “antagonized AED-mediated AR transcriptional activity”. In the same order, the values of `CO[C@H]1CC[C@@]2(C)C(=CC(=O)[C@H]3[C@@H]4CC[C@H](O)[C@@]4(C)CC[C@@H]32)C1` [Compound 15, 3β-methoxy-17β-hydroxy-androst-5-ene-7-one] are “little androgenic activity” and “either activation of AED-mediated AR transcriptional activity or they have no effect”. `C[C@]12CC[C@H]3[C@@H](C(=O)C=C4C[C@@H](O)CC[C@@]43C)[C@@H]1CC[C@@H]2O` [Compound 22, 7-oxo-androstene-3β,17β-diol]: at androgen receptor (AR) [1], the “androgenic activity” value is “little androgenic activity”. Moreover, the “effect” value on androgen receptor (AR) [2] is “either activation of AED-mediated AR transcriptional activity or they have no effect”. For the molecule `CC(C)(O)C(=O)Nc1ccc([N+](=O)[O-])c(C(F)(F)F)c1` [HF, hydroxyflutamide], the “suppression of AED-mediated AR transcription activity by HF” value on androgen receptor (AR) [4] is “about 40%”.
